# Data: patent US20210261528A1, “SALTS OF (S)-(5-CYCLOBUTOXY-2-METHYL-6-(1-(PIPERIDIN-4-YL)-1H-PYRAZOL-4-YL)-3,4-DIHYDROQUINOLIN-1(2H)-YL)(CYCLOPROPYL)METHANONE AND SOLID FORMS THEREOF” (FORMA Therapeutics, Inc., priority 2018, published 2021)
# Experiments:
# Assay type in all cases: physicochemical
# [1] = Slurry turnover of Compound 2 Form B, Form I and Form G (Example 11, Table 25); details: IPAc and MTBE, RT or 50° C., 24 hours
# Description: To further study the form identity of Form B and Form I, slurry turnover experiments were performed in two solvents with the addition of Form G. Form B was dissolved in IPAc and MTBE respectively to get saturated solutions. Similar mass of Form B, G and I were weighed into a 2-mL vial, upon which the corresponding saturated solution was added to give the slurry, which was stirred at RT or 50° C. After slurry for 24 hours, the solids obtained were analyzed by XRPD.
# [2] = Physical stability of Compound 2 Form G over 42 days at varying conditions by XRPD, PLM, DSC/TGA (Table 23)
# Description: The stability of Compound 2 Form G was tested over 42 days at varying conditions and is reported below in Table 23 and in FIG. 61:
# On Day 38, stability samples at 50° C. were exposed to temperatures of approximately 85° C. for 24 hours.
# [3] = Aqueous solubility estimation of Compound 2 Form G, Form O and Form I at RT (Example 13, Table 27)
# Description: Aqueous solubility tests at RT were conducted on the two potential anhydrates, Form G and O, and the hydrated Form I. About 3 mg of each form was weighed into a 2-mL vial. […] of water was added and stirred thoroughly at RT with the speed of 800 RPM.
# [4] = Slurry competition between Compound 2 Form G and Form O for stability evaluation (Example 10, Table 24); details: IPAc and MTBE, RT and 50° C., 24 hours
# Description: The slurry competition experiments between the two anhydrates, Form G and Form O, were performed in two solvents, IPAc and MTBE, at RT and 50° C. for stability evaluation. Form O was dissolved in IPAc and MTBE respectively to get saturated solutions. Then, similar masses of Form G and Form O were added into a 2-mL vial, upon which the corresponding saturated solution was added to give the slurry, which was stirred at RT or 50° C. for 24 hours. The solids collected were analyzed by XRPD to confirm the form change.
# [5] = Chemical stability by HPLC-UV at 275 nm and 254 nm (Table 9)
# Description: High Pressure Liquid Chromatography (HPLC) data were obtained according to Tables 6 or 7, below:
# A standard stock was dissolved with diluent in a volumetric flask (e.g., 25 mg in 25 mL). This stock was vortexed and sonicated 10 sec to dissolve, and then diluted 1:10, 1:4, and 1:2 either in volumetric flasks or in HPLC vials to generate a standard curve. […] Where appropriate, a blank was created to accurately replicate the matrix of the analytical sample, and peaks appearing in the blank were identified before integration and quantification using Chemstation software.
# The chemical stability of Succinate Form A was determined using HPLC-UV at 275 nm and 254 nm.
# The chemical stability of Form G was determined using HPLC-UV at 275 nm and 254 nm.
# [6] = Critical aw between Compound 2 Form G and Form I, slurry turnover in H2O/IPAc (Example 12, Table 26); details: H2O/IPAc, RT and 50° C., 24 hrs; except aw of 0.8 at RT (close to amorphous)
# Description: To investigate the critical aw between hydrated Form I and the stable anhydrate, Form G, slurry turnover of Form I and Form G was conducted in a co-solvent system (H2O/IPAc) with different aw at RT and 50° C. Similar mass of Form G and Form I were added into a 2-mL vial, followed by adding solvent and stirring at RT or 50° C. for 24 hrs. The solids obtained were analyzed by XRPD to confirm the form change.
# [7] = Hygroscopicity evaluation by Dynamic Vapor Sorption (DVS) with XRPD of the solids after DVS; details: for solid form after the DVS test: XRPD of solids after DVS
# Description: Dynamic Vapor Sorption (DVS) was obtained using a Surface Measurement Systems (SMS) DVS Intrinsic. The relative humidity at 25° C. were calibrated against deliquescence point of LiCl, Mg (NO3)2 and KCl.
# [8] = Slurry conversion of Fumarate Forms A, B and C (Example 6, Table 11); details: RT, about 4 days
# Description: Slurry conversion of Fumarate Forms A, B, and C was conducted in three different solvents.
# [9] = Aqueous solubility evaluation of Compound 1 salt forms (Example 5, Table 10)
# Description: For each of the experiments 1 through 5 in Table 10, about 100 mg of solid form was suspended in 1.5 mL of water, and the vial was rolled at RT for about 24 hours (25 r/min). […] Supernatant of experiment 3 was collected by filtration through a 0.45 μm membrane for HPLC analysis. For each of the experiments 6 through 10 in Table 10, about 40 mg of solid form was dissolved in 0.2 mL (0.9 mL for experiment 7) water and then analyzed by HPLC after 24-hour storage at RT.
# [10] = 50° C., closed, 42* days (Day 38 excursion to approximately 85° C. for 24 hours)
# [11] = ambient conditions and 25° C./60% RH open, 42 days, 254 nm
structure (smiles),measurement,setting,value
"C[C@H]1CCc2c(ccc(-c3cnn(C4CCNCC4)c3)c2OC2CCC2)N1C(=O)C1CC1.O=C(O)CCC(=O)O [Form G, (S)-(5-cyclobutoxy-2-methyl-6-(1-(piperidin-4-yl)-1H-pyrazol-4-yl)-3,4-dihydroquinolin-1(2H)-yl)(cyclopropyl)methanone succinate]","form obtained from slurry of a mixture of Form B, G and I (XRPD)",[1],converted to Form G completely
same,DSC endotherm Temp,"[2]; 25° C./60% RH open, 1 days",125.46 °C
same,DSC endotherm ΔH,"[2]; 25° C./60% RH open, 1 days",66.76 J/g
same,TGA % weight loss before 150° C.,"[2]; 25° C./60% RH open, 1 days",0.4580%
same,DSC endotherm Temp,"[2]; 25° C./60% RH open, 3 days",125.61 °C
same,DSC endotherm ΔH,"[2]; 25° C./60% RH open, 3 days",63.86 J/g
same,TGA % weight loss before 150° C.,"[2]; 25° C./60% RH open, 3 days",0.5433%
same,DSC endotherm Temp,"[2]; 25° C./60% RH open, 7 days",125.68 °C
same,DSC endotherm ΔH,"[2]; 25° C./60% RH open, 7 days",64.19 J/g
same,TGA % weight loss before 150° C.,"[2]; 25° C./60% RH open, 7 days",0.5129%
same,DSC endotherm Temp,"[2]; 25° C./60% RH open, 14 days",125.64 °C
same,DSC endotherm ΔH,"[2]; 25° C./60% RH open, 14 days",65.95 J/g
same,TGA % weight loss before 150° C.,"[2]; 25° C./60% RH open, 14 days",0.5232%
same,DSC endotherm Temp,"[2]; 25° C./60% RH open, 21 days",125.94 °C
same,DSC endotherm ΔH,"[2]; 25° C./60% RH open, 21 days",64.03 J/g
same,TGA % weight loss before 150° C.,"[2]; 25° C./60% RH open, 21 days",0.6097%
same,DSC endotherm Temp,"[2]; 25° C./60% RH open, 42 days",126.50 °C
same,DSC endotherm ΔH,"[2]; 25° C./60% RH open, 42 days",57.76 J/g
same,TGA % weight loss before 150° C.,"[2]; 25° C./60% RH open, 42 days",0.6016%
same,flowability by visual assessment,[2]; 50° C. sample after being exposed to higher temperatures,slight reduction in flowability
same,"physical stability (XRPD, DSC/TGA, PLM)","[2]; 50° C. samples, exposed on Day 38 to approximately 85° C. for 24 hours",physically stable
same,DSC endotherm Temp,[2]; [10],121.80 °C
same,DSC endotherm ΔH,[2]; [10],51.32 J/g
same,TGA % weight loss before 150° C.,[2]; [10],0.7707%
same,DSC endotherm Temp,"[2]; 50° C., closed, 1 days",125.53 °C
same,DSC endotherm ΔH,"[2]; 50° C., closed, 1 days",67.41 J/g
same,TGA % weight loss before 150° C.,"[2]; 50° C., closed, 1 days",0.4716%
same,DSC endotherm Temp,"[2]; 50° C., closed, 3 days",125.97 °C
same,DSC endotherm ΔH,"[2]; 50° C., closed, 3 days",59.90 J/g
same,TGA % weight loss before 150° C.,"[2]; 50° C., closed, 3 days",0.4670%
same,DSC endotherm Temp,"[2]; 50° C., closed, 7 days",125.97 °C
same,DSC endotherm ΔH,"[2]; 50° C., closed, 7 days",65.47 J/g
same,TGA % weight loss before 150° C.,"[2]; 50° C., closed, 7 days",0.5022%
same,DSC endotherm Temp,"[2]; 50° C., closed, 14 days",125.16 °C
same,DSC endotherm ΔH,"[2]; 50° C., closed, 14 days",64.27 J/g
same,TGA % weight loss before 150° C.,"[2]; 50° C., closed, 14 days",0.5893%
same,DSC endotherm Temp,"[2]; 50° C., closed, 21 days",125.21 °C
same,DSC endotherm ΔH,"[2]; 50° C., closed, 21 days",64.69 J/g
same,TGA % weight loss before 150° C.,"[2]; 50° C., closed, 21 days",0.5702%
same,DSC endotherm Temp,"[2]; Initial, 0 days",125.51 °C
same,DSC endotherm ΔH,"[2]; Initial, 0 days",63.56 J/g
same,TGA % weight loss before 150° C.,"[2]; Initial, 0 days",0.5459%
same,flow properties by visual assessment,"[2]; ambient 42 days, 25° C./75% RH 42 days, 50° C. 21 days",good flow properties
same,DSC endotherm Temp,"[2]; ambient, closed, 1 days",125.59 °C
same,DSC endotherm ΔH,"[2]; ambient, closed, 1 days",62.59 J/g
same,TGA % weight loss before 150° C.,"[2]; ambient, closed, 1 days",0.5454%
same,DSC endotherm Temp,"[2]; ambient, closed, 3 days",125.61 °C
same,DSC endotherm ΔH,"[2]; ambient, closed, 3 days",63.01 J/g
same,TGA % weight loss before 150° C.,"[2]; ambient, closed, 3 days",0.5338%
same,DSC endotherm Temp,"[2]; ambient, closed, 7 days",125.41 °C
same,DSC endotherm ΔH,"[2]; ambient, closed, 7 days",63.00 J/g
same,TGA % weight loss before 150° C.,"[2]; ambient, closed, 7 days",0.5540%
same,DSC endotherm Temp,"[2]; ambient, closed, 14 days",125.52 °C
same,DSC endotherm ΔH,"[2]; ambient, closed, 14 days",63.86 J/g
same,TGA % weight loss before 150° C.,"[2]; ambient, closed, 14 days",0.4133%
same,DSC endotherm Temp,"[2]; ambient, closed, 21 days",125.38 °C
same,DSC endotherm ΔH,"[2]; ambient, closed, 21 days",67.51 J/g
same,TGA % weight loss before 150° C.,"[2]; ambient, closed, 21 days",0.8085%
same,DSC endotherm Temp,"[2]; ambient, closed, 42 days",125.35 °C
same,DSC endotherm ΔH,"[2]; ambient, closed, 42 days",66.56 J/g
same,TGA % weight loss before 150° C.,"[2]; ambient, closed, 42 days",0.4578%
same,"change in physical form by XRPD, PLM or DSC/TGA","[2]; storage conditions below 75% RH, after 42 days",no significant change in physical form
same,Observation Initial,"[3]; about 3 mg in 50 μL water, initial, succinate",Clear
same,solubility at 2 h,"[3]; thermodynamic from solid, water, stirring 2 hrs at 800 RPM",> 60 mg/mL
same,form obtained from slurry competition of Form G and Form O (XRPD),[4],converted to Form G completely
same,claim of the expected Compound 2 content by HPLC-UV,"[5]; all stability samples, 275 nm",95-107 % claim
same,impurity increase by HPLC-UV,[5]; [11],no significant impurity increase
same,reduction in purity by HPLC-UV,[5]; [11],no reduction in purity
same,form obtained from slurry of Form G and Form I at different aw (XRPD),[6],completely converted to Form G
same,solid form after the DVS test,[7]; succinate,amorphous
same,water absorbed above 70% RH (DVS),[7]; above 70% RH,about 25.19 % (wt/wt)
same,hygroscopicity (DVS),"[7]; absorption up to 80% RH, 25° C., succinate",high hygroscopicity
"C[C@H]1CCc2c(ccc(-c3cnn(C4CCNCC4)c3)c2OC2CCC2)N1C(=O)C1CC1.O=C(O)/C=C/C(=O)O [Fumarate Type A, B and C]",Solid form after slurry conversion,[8]; ACN,Fumarate Form A
same,Solid form after slurry conversion,[8]; Acetone,Fumarate Form B
same,Solid form after slurry conversion,[8]; EtOAc,Fumarate Form C
"C[C@H]1CCc2c(ccc(-c3cnn(C4CCNCC4)c3)c2OC2CCC2)N1C(=O)C1CC1.O=C(O)CCC(=O)O [Succinate Form A, (S)-(5-cyclobutoxy-2-methyl-6-(1-(piperidin-4-yl)-1H-pyrazol-4-yl)-3,4-dihydroquinolin-1(2H)-yl)(cyclopropyl)methanone succinate]",chemical degradation by HPLC-UV,[5]; after 42 days at 25° C./60% RH,did not show significant chemical degradation
same,chemical degradation by HPLC-UV,[5]; after 42 days at temperatures below 40° C.,no significant chemical degradation
same,behaviour at high humidity (DVS),"[7]; >60% RH, 25° C.",deliquescent
same,solid form after the DVS test,[7]; succinate,amorphous or jelly solids
same,solubility in water,[9],> 100 mg FB/mL
